Measured values reported in US20230257390A1, “COMPOUNDS WHICH INHIBIT RNA POLYMERASE AND THEIR USE” (The Johns Hopkins University, priority 2020, published 2023).
Counter-ions that a name gives are not always drawn.

system: NCI60 cancer cell lines; assay: not given; settings: cited from earlier work

Row | SMILES | anticancer activity
1 | CN(C)CCNC(=O)c1cccn2c(=O)c3cc4ccccc4cc3nc12 [BMH-21, 12H-Benzo[g]pyrido[2,1-b]quinazoline-4-carboxamide, N-[2(dimethylamino)ethyl]-12-oxo] | anticancer activity

system: tumor burden; assay: not given; settings: mouse xenograft assays; cited from earlier work

Row | SMILES | tumor burden
2 | CN(C)CCNC(=O)c1cccn2c(=O)c3cc4ccccc4cc3nc12 [BMH-21, 12H-Benzo[g]pyrido[2,1-b]quinazoline-4-carboxamide, N-[2(dimethylamino)ethyl]-12-oxo] | reduced tumor burden

system: RPA194; assay: RPA194 immunofluorescence high-content imaging in A375 cells (Pol I inhibition); assay type: cell-based; settings: treated for 4 hours, top concentration 10 μM
Protocol: Cell culture: A375 cells (CRL-1619, ATCC) were grown in DMEM (GIBCO) supplemented with 10% fetal bovine serum (GIBCO) in 5% CO2 at 37° C.
Cell treatment and Imaging: 18 hours post-seeding in cell carrier black 384-well plates (PerkinElmer) at 15 000 cells/well, A375 cells were treated for 4 hours with a positive control or test compounds (9 serial semi-log dilutions, top concentration 10 μM). Upon treatment A375 cells were (i) fixed for 15 min at RT with 4% of paraformaldehyde, (ii) permeabilized for 20 min at RT with 0.1-0.5% of NP-40, (iii) incubated with primary antibodies at 4° C.: anti-RPA194 (1:1000-1:1250 dilution, sc-48385, Santa Cruz Biotechnology) and anti-gH2Ax (1:5000 dilution, 81299, Abcam or 1:4000, JBW302, Millipore) (iv) incubated for 1 h at RT with Hoechst (1:5000 dilution, H3570, ThermoFisher) and secondary antibodies: anti-mouse-AlexaFluor488 (1:2000 dilution, A11001, ThermoFisher) and anti-rabbit-AlexaFluor647 (1:2000 dilution, A21443, ThermoFisher) or goat anti-mouse AlexaFluor-594 (1:1000 dilution). Images were acquired on an Operetta CLS High-Content Analysis System (PerkinElmer) (40× objective; 9 fields/well) and processed using the Columbus Image Analysis System (PerkinElmer) or by using Molecular Devices ImageXpress Micro XLS High Content Imager and MetaXpress high-content acquisition and analysis software.
In the table below, (+) is associated with a pIC50 5.02 to 5.8; (++) with pIC50 5.8 to 6.3; and plus sing (+++) with a pIC50 above 6.3.

Row | SMILES | Activity Range (pIC50)
3 | O=C(NCCN1C[C@@H](O)[C@H](O)C1)c1cccn2c(=O)c3cc4c(cc3nc12)OC(F)(F)O4 [Compound 101, N-(2-((3R,4R)-3,4-dihydroxypyrrolidin-1-yl)ethyl)-2,2-difluoro-11-oxo-11H-[1,3]dioxolo[4,5-g]pyrido[2,1-b]quinazoline-6-carboxamide] | + ((+) is associated with a pIC50 5.02 to 5.8)
4 | O=C(NCCN1CCC(O)C1)c1cccn2c(=O)c3cc4c(cc3nc12)OC(F)(F)O4 (centres unmarked) [Compound 102, 2,2-difluoro-N-(2-(3-hydroxypyrrolidin-1-yl)ethyl)-11-oxo-11H-[1,3]dioxolo[4,5-g]pyrido[2,1-b]quinazoline-6-carboxamide; hydrochloride] | + ((+) is associated with a pIC50 5.02 to 5.8)
5 | O=C1CCN(CCNC(=O)c2cccn3c(=O)c4cc5c(cc4nc23)OC(F)(F)O5)CC1 [Compound 103, 2,2-difluoro-11-oxo-N-(2-(4-oxopiperidin-1-yl)ethyl)-11H-[1,3]dioxolo[4,5-g]pyrido[2,1-b]quinazoline-6-carboxamide] | ++ ((++) with pIC50 5.8 to 6.3)
6 | CN(C)CCNC(=O)c1cccn2c(=O)c3cc4c(cc3nc12)OC(F)(F)O4 [Compound 104, N-(2-(dimethylamino)ethyl)-2,2-difluoro-11-oxo-11H-[1,3]dioxolo[4,5-g]pyrido[2,1-b]quinazoline-6-carboxamide; hydrochloride] | + ((+) is associated with a pIC50 5.02 to 5.8)
7 | O=C(NCCN1CCC(O)CC1)c1cccn2c(=O)c3cc4c(cc3nc12)OC(F)(F)O4 [Compound 105, 2,2-difluoro-N-(2-(4-hydroxypiperidin-1-yl)ethyl)-11-oxo-11H-[1,3]dioxolo[4,5-g]pyrido[2,1-b]quinazoline-6-carboxamide; hydrochloride] | ++ ((++) with pIC50 5.8 to 6.3)
8 | CN(C)C(C)(C)CNC(=O)c1cccn2c(=O)c3cc4c(cc3nc12)OC(F)(F)O4 [Compound 106, N-(2-(dimethylamino)-2-methylpropyl)-2,2-difluoro-11-oxo-11H-[1,3]dioxolo[4,5-g]pyrido[2,1-b]quinazoline-6-carboxamide; hydrochloride] | + ((+) is associated with a pIC50 5.02 to 5.8)
9 | O=C(NCCN1CCCC1)c1cccn2c(=O)c3cc4c(cc3nc12)OC(F)(F)O4 [Compound 107, 2,2-difluoro-11-oxo-N-(2-(pyrrolidin-1-yl)ethyl)-11H-[1,3]dioxolo[4,5-2]pyrido[2,1-b]quinazoline-6-carboxamide; hydrochloride] | +++ ((+++) with a pIC50 above 6.3)
10 | O=C(NCCN1CCCC1)c1cccn2c(=O)c3cc4c(cc3nc12)OCO4 [Compound 108, 11-oxo-N-(2-(pyrrolidin-1-yl)ethyl)-11H-[1,3]dioxolo[4,5-g]pyrido[2,1-b]quinazoline-6-carboxamide; hydrochloride] | ++ ((++) with pIC50 5.8 to 6.3)
11 | Cc1cc2nc3c(C(=O)NCCN(C)C)cccn3c(=O)c2cc1C [Compound 109, N-(2-(dimethylamino)ethyl)-2,3-dimethyl-11-oxo-11H-pyrido[2,1-b]quinazoline-6-carboxamide; hydrochloride] | ++ ((++) with pIC50 5.8 to 6.3)
12 | Cc1cc2nc3c(C(=O)NCCN4CCCC4)cccn3c(=O)c2cc1C [Compound 110, 2,3-dimethyl-11-oxo-N-(2-(pyrrolidin-1-yl)ethyl)-11H-pyrido[2,1-b]quinazoline-6-carboxamide; hydrochloride] | ++ ((++) with pIC50 5.8 to 6.3)
13 | CN(C)CCNC(=O)c1cccn2c(=O)c3cc4c(cc3nc12)CCCC4 [Compound 111, N-(2-(dimethylamino)ethyl)-12-oxo-7,9,10,12-tetrahydro-8H-benzo[g]pyrido[2,1-b]quinazoline-4-carboxamide; hydrochloride] | + ((+) is associated with a pIC50 5.02 to 5.8)
14 | O=C(NCCN1CCCC1)c1cccn2c(=O)c3cc4c(cc3nc12)CCCC4 [Compound 112, 12-oxo-N-(2-(pyrrolidin-1-yl)ethyl)-7,9,10,12-tetrahydro-8H-benzo[g]pyrido[2,1-b]quinazoline-4-carboxamide; hydrochloride] | ++ ((++) with pIC50 5.8 to 6.3)
15 | O=C(NCCN1CCCC1)c1cccn2c(=O)c3cc4c(cc3nc12)OCCO4 [Compound 113, 12-oxo-N-(2-(pyrrolidin-1-yl)ethyl)-2,3-dihydro-12H-[1,4]dioxino[2,3-2]pyrido[2,1-b]quinazoline-7-carboxamide; hydrochloride] | + ((+) is associated with a pIC50 5.02 to 5.8)
16 | CN(C)CCNC(=O)c1cccn2c(=O)c3cc4c(cc3nc12)OCCO4 [Compound 114, N-(2-(dimethylamino)ethyl)-12-oxo-2,3-dihydro-12H-[1,4]dioxino[2,3-g]pyrido[2,1-b]quinazoline-7-carboxamide; hydrochloride] | + ((+) is associated with a pIC50 5.02 to 5.8)
17 | Cc1ccc2c(=O)n3cccc(C(=O)NCCN4CC[C@@H](O)C4)c3nc2c1C [Compound 115, (R)-N-(2-(3-hydroxypyrrolidin-1-yl)ethyl)-3,4-dimethyl-11-oxo-11H-pyrido[2,1-b]quinazoline-6-carboxamide; hydrochloride] | +++ ((+++) with a pIC50 above 6.3)
18 | Cc1ccc2c(=O)n3cccc(C(=O)NCCN4CCCC4)c3nc2c1 [Compound 116, 3-methyl-11-oxo-N-(2-(pyrrolidin-1-yl)ethyl)-11H-pyrido[2,1-b]quinazoline-6-carboxamide;hydrochloride] | + ((+) is associated with a pIC50 5.02 to 5.8)
19 | Cc1cccc2c(=O)n3cccc(C(=O)NCCN4CCCC4)c3nc12 [Compound 117, 4-methyl-11-oxo-N-(2-(Pyrrolidin-1-Yl)ethyl)-11H-pyrido[2,1-b]quinazoline-6-carboxamide;hydrochloride] | ++ ((++) with pIC50 5.8 to 6.3)
20 | O=C(NCCN1CCCC1)c1cccn2c(=O)c3cccc(-c4ccccc4)c3nc12 [Compound 118, 11-oxo-4-phenyl-N-(2-(pyrrolidin-1-yl)ethyl)-11H-pyrido[2,1-b]quinazoline-6-carboxamide; hydrochloride] | + ((+) is associated with a pIC50 5.02 to 5.8)
21 | O=C(NCCN1CCCC1)c1cccn2c(=O)c3ccc(-c4ccccc4)cc3nc12 [Compound 119, 11-oxo-3-phenyl-N-(2-(pyrrolidin-1-yl)ethyl)-11H-pyrido[2,1-b]quinazoline-6-carboxamide; hydrochloride] | + ((+) is associated with a pIC50 5.02 to 5.8)
22 | Cc1ccc2c(=O)n3cccc(C(=O)NCCN4CCCC4)c3nc2c1C [Compound 120, 3,4-dimethyl-11-oxo-N-(2-(pyrrolidin-1-yl)ethyl)-11H-pyrido[2,1-b]quinazoline-6-carboxamide; hydrochloride] | +++ ((+++) with a pIC50 above 6.3)
23 | O=C(NCCN1CCCC1)c1cccn2c(=O)c3ccc4c(c3nc12)OC(F)(F)O4 [Compound 121, 2,2-difluoro-6-oxo-N-(2-(pyrrolidin-1-yl)ethyl)-6H-[1,3]dioxolo[4,5-h]pyrido[2,1-b]quinazoline-11-carboxamide;hydrochloride] | + ((+) is associated with a pIC50 5.02 to 5.8)
